Key:
[1] = system: B16F10LucGFP subcutaneous tumors; assay: Subcutaneous melanoma model (lung metastases, vessel normalization, drug efflux pump); type: in vivo, mouse
Experimental: (§1) B16F10LucGFP cells were grown as subcutaneous tumors, after injecting 100 μl of a plug constituted by 10^5 cells in 25% Matrigel™ (50% in OptiMEM). Matrigel was from BD Biosciences and OptiMEM from Invitrogen. Mice were euthanized and tumors and lungs excised 25 days after inoculation. […] Treatment was initiated 7, 9 or 11 days post melanoma cell inoculation.
Tumor tissues were embedded in Tissue-Tek (Sakura), tissue freezing medium and snap frozen in liquid nitrogen. Cryosections were fixed and stained using a rat monoclonal IgG2a antibodies against mouse CD31 (PECAM-I, platelet/endothelial cell adhesion molecule) from eBiosciences, rabbit IgG anti-SMA (smooth muscle actin) antibody (AbCAM), or mouse IgG2a anti-P-Glycoprotein (C219) (Calbiochem), diluted 1:200 in FCS 5% in PBS. Goat IgG-FITC-labeled anti-rat immunoglobulin, goat IgG-FITC-labelled anti-rabbit immunoglobulin or goat IgG-FITC-labelled anti-mouse immunoglobulin (diluted 1:200 in PBS) was used as secondary antibodies respectively. To detect cell nuclei, sections were incubated with bis-Benzimide H 33258 (Sigma-Aldrich) 1:1000 in PBS. Specimens were mounted in Vectashield (Vector) and fluorescent microscopy detection was performed on a Zeiss 200M inverted fluorescent microscope. Tumor necrosis was analysed after Hematoxylin eosine staining of tumor sections.
MRI assays were performed with a 9.4 T horizontal magnet for small animals (94/21 USR Bruker Biospec), equipped with a 950 mT/m gradient set. Mice were placed in a linear homogeneous coil (inner diameter: 35 mm). Animals were maintained under gaseous (50% N2O: 0.7 l/min—50% O2: 0.7l/min—Isoflurane 1.5%) anesthesia, temperature kept constant at 36° C. and breathing rate was monitored during the acquisitions using air balloon placed on the mouse chest to adjust the anesthetic output. Measurement of tumor vascularization was performed by MR angiography using the Fast Low Angle Shot (FLASH) sequence both in the axial and coronal planes. The FLASH pulse sequence was adapted to the study of the evolution of the angiogenesis of the tumor. This technique allows the 3D structure of the vascular tree of the tumor on the same animal to be followed overtime.
Structural changes of microcirculation in tumors were assessed by MRA (Magnetic Resonance Angiography) adaptation of Magnetic Resonance Imaging (MRI) to follow the 3D structure of the vascular tree of the tumor.

[2] = system: Human MiaPaca in Nude Mouse; assay: Median survival, human MiaPaca tumor in nude mouse; type: in vivo
From the text: (§2) Median survival time of animals with ductal pancreatic adenocarcinoma treated with OXY111A and/or gemcitabine was followed and summarized in Table 1 below: […]

[3] = system: Syngeneic rat tumor in rat (ductal pancreatic adenocarcinoma); assay: Median survival, syngeneic rat pancreatic tumor in rat; type: in vivo
Experimental: (§3) In the ITPP treatment group, rats with pancreatic tumor were treated with ITPP (1.5 mg/Kg) weekly during the period of day 14 to day 49. In the gemcitabine treatment group, rats with pancreatic tumor were treated with gemcitabine (100 mg/Kg) on days 16, 18 and 20. Animals in the control group were not treated.
as §3, with “the combination” for “the ITPP”, “(1.5 mg/Kg) in combination with gemcitabine (25 mg/Kg or 50” for “(1.5”
In the rat pancreatic tumor model, rats in the combination treatment group received ITPP (1.5 mg/Kg) in combination with gemcitabine (25 mg/Kg or 50 mg/Kg) weekly during the period of day 14 to day 49. Rats in the gemcitabine treatment group received administration of gemcitabine (100 mg/Kg) alone on days 16, 18 and 20. Rats in the control group were not treated.
as §2

[4] = system: B16F10LucGFP murine melanoma cells; assay: Experimental metastasis assay (intravenous B16F10LucGFP melanoma cells), lung markers; type: in vivo, mouse
Experimental: After intravenous injection of B16F10LucGFP murine melanoma cells (10^5 cells in 0.1 ml saline) in the tail vein, mice (eight-week-old female C57BL/6 from Janvier) were treated by 1.5 g/kg ITPP IP injected every 5 days (10 mice per treatment group). Treatment was initiated at day 5 after tumor cells inoculation. 19 or 27 days later, mice were euthanized and lungs collected separately. Macroscopic lung foci were counted and luciferase was determined by chemoluminescence assay (Promega) in order to quantify the amount of melanoma cells in tissues. All animal study procedures and the use of animals were approved by the Comite d'Ethique pour l'expérimentation animale, Campus CNRS d'Orléans, France.
Lungs were homogenized in lysis buffer (Active motif). After centrifugations, clear supernatant was collected. Total protein amount was determined by BCA protein assay kit (Thermo Scientific). HIF-1α, VEGF, Tie-2 and HO-1 in lung lysates were quantified using colorimetric sandwich ELISA according to the manufacturer's instructions. The HIF-1α, VEGF and Tie-2 ELISA kits were from R&D. The HO-1 ELISA kit was from Takara.
The Taqman polymerase chain reaction primer sequences for LOX were 5′-[…]-3′ (SEQ ID NO: 1) and 5′-[…]-3′ (SEQ ID NO: 2). For β-actin (internal control), the primer sequences were 5′-[…] ATCC-3′ (SEQ ID NO: 3) and 5′-[…]-3′ (SEQ ID NO: 4). The amplified cDNAs bands were quantified with ImageQuant software (Becton and Dickinson). LOX mRNA levels were normalized relatively to β-actin mRNA.
To validate ITPP as an anti-metastatic agent, the “artificial” model of lung metastasis was used by injecting intravenously melanoma cells in mice. The B16F10LucGFP cell line was used, which is the melanoma B16F10 line transduced by GFP and luciferase reporter genes allowing to track and quantify the melanoma cells by analysis of luciferase activity in tissues.

[5] = system: subcutaneous melanoma tumor; assay: Oxylite pO2 measurement in subcutaneous melanoma tumor; type: in vivo, mouse
Experimental: as §1
The oxylite 2000E PO2 system (Oxford Optronics) measures pO2 by determining the O2-dependant fluorescence lifetime of ruthenium chloride which is immobilized at the tip of 230-μm diameter fiber-optic probe. The lifetime of the fluorescent pulse is inversely proportional to the oxygen tension in the tip. The mouse was anesthetized with intraperitoneal injection of xylazine/ketamin before the oxylite probe tip was installed inside the tumor and oxygen pressure recorded as described.
To confirm that ITPP-RBCs counteract hypoxia in vivo, a comparison of the values of the oxygen tension inside the melanoma tumors implanted subcutaneously above the left leg, in ITPP-treated and untreated mice was performed. Oxygen pressure (pO2) was computed by determining the O2-dependent fluorescence lifetime of ruthenium chloride on the tip of a fibre-optic probe. The lifetime of the fluorescent pulse is inversely proportional to the oxygen tension in the tip of the probe. While the tumors in non-treated animals, were strongly hypoxic with an oxygen pressure value below 2 mmHg (FIG. 1), in tumors of ITPP-treated mice pO2 reached the range of 40 mmHg (FIG. 1A). This pO2 increase occurred as soon as 30 minutes after intra-peritoneal injection of ITPP (FIG. 1B, C) and was maintained at a high level, up to 40 mmHg, as shown 24 hours after injection (FIG. 1A) for at least 48 hours.

[6] = system: Rat tumor in Nude Mouse (ductal pancreatic adenocarcinoma); assay: Median survival, rat pancreatic tumor in nude mouse; type: in vivo
From the text: as §2

B16 tumor = assay: Immune cell infiltration into B16 tumor; type: in vivo
Experimental: OXY111A was injected intraperitoneally on days 7, 8, 14, 15, 21, 22, 29 and 30. Analysis of the B16 tumor was performed on day 31.
(a) to (c) untreated B16 tumor; (d) to (f) B16 tumor treated with ITPP. Green arrows indicate the infiltrating NK cells; red arrows indicate the vessel walls.
B16 tumor cells were labeled with B16F10 DAPI; NK cells were labeled by anti-CD49bFITCl; and vessel endothelial cells were labeled by antiCD31TRITC. (a) untreated B 16 tumor; (b) and (c) B 16 tumor treated with ITPP.

[7] = system: Human Panc-1 pancreatic tumor xenograft; assay: Median survival, human Panc-1 pancreatic tumor xenograft in nude mouse; type: in vivo
Experimental: as §3, with “mice” for “rats”, “with” for “with pancreatic”, “tumor xenograft” for “tumor”, “(2” for “(1.5”
In the combination treatment group, mice with tumor xenograft were treated with ITPP (2 mg/Kg) in combination with gemcitabine (25 mg/Kg or 50 mg/Kg) weekly during the period of day 14 to day 49. In the
gemcitabine treatment group, mice with tumor xenograft were treated with gemcitabine (100 mg/Kg) on days 16, 18 and 20. Animals in the control group were not treated.
In the xenograft tumor model, mice in the combination treatment group received administration of ITPP (2 mg/Kg) in combination with gemcitabine (25 mg/Kg or 50 mg/Kg) weekly during the period of day 14 to day 49. Mice in the gemcitabine treatment group received administration of gemcitabine (100 mg/Kg) on days 16, 18 and 20. Mice in the control group were not treated.
as §2

endothelial cells = assay: Endothelial cell sensitivity to chemotherapeutic drugs; type: cell-based, mouse; settings: drug by itself, FIG. 4C
Experimental: Cell viability was evaluated by Alamar blue test (Biosource) as described by the manufacturer.

**Q.** For `O=P1([O-])OC2C3OP(=O)([O-])OP(=O)([O-])OC3C3OP(=O)([O-])OP(=O)([O-])OC3C2OP(=O)([O-])O1.[Na+].[Na+].[Na+].[Na+].[Na+].[Na+]` (stereo not drawn) [ITPP, hexasodium myo-inositol trispyrophosphate], which “Tumor vasculature (MRA)” value ([1]; ITPP on day 9 and 14, repeated on days 18 and 19) is on record?
**A.** less dense and remarkably normalized

**Q.** And the Tumor size ([1]; ITPP on days 9, 14, 18, 19)?
**A.** remarkable reduction of the tumor size

**Q.** And the “P-glycoprotein drug efflux pump in tumor” value ([1]; implanted primary tumors, immunostaining)?
**A.** down-regulates

**Q.** What about the Lung metastases ([1]; initiation of ITPP on day 9 or 11) of the same molecule?
**A.** less effective

**Q.** And the Lung metastases ([1]; initiation on day 9 or 11, chronic administrations)?
**A.** enhancement of pulmonary metastases

**Q.** What about the Lung metastases ([1]; short-term treatment (3 ITPP injections, 5 days intervals) started on day 7) of the same molecule?
**A.** reduced significantly the lung metastases

**Q.** And the Median survival time ([2]; OXY111A alone, 2 mg/kg)?
**A.** 155 days

**Q.** And the Median survival time ([3]; OXY111A alone, 1.5 mg/kg)?
**A.** 102 days

**Q.** And the “Tie-2 expression in lungs” value ([4]; ELISA on lung lysates)?
**A.** re-induced

**Q.** And the “VEGF level in lungs” value ([4]; ELISA on lung lysates)?
**A.** decreased to control levels

**Q.** What about the “HIF-1α levels in lungs” value ([4]; ELISA on lung lysates, vs untreated melanoma bearing mice) of the same molecule?
**A.** decreased dramatically

**Q.** And the “HO-1 expression in lungs” value ([4]; ELISA, compared to non-treated mice)?
**A.** significantly reduced

**Q.** And the “Metastatic nodules in lung” value ([4]; ITPP treatment started from day 5, until day 27)?
**A.** very significantly reduced

**Q.** And the “Lysyl-oxidase (LOX) mRNA” value ([4]; semi-quantitative PCR)?
**A.** beneficial effect

**Q.** And the “pO2 level maintained in tumor” value ([5]; 24 hours after injection)?
**A.** up to 40 mmHg

**Q.** And the “Duration of high tumor pO2” value ([5]; after injection)?
**A.** at least 48 hours

**Q.** What about the “Time to pO2 increase in tumor” value ([5]; after intra-peritoneal injection of ITPP) of the same molecule?
**A.** 30 minutes

**Q.** And the “pO2 in muscle of non tumoral leg” value ([5]; parallel measurement in same animal)?
**A.** no change or any effect on pO2 was detected

**Q.** And the “Oxygen pressure (pO2) in tumor” value ([5]; tumors of ITPP-treated mice, FIG. 1A)?
**A.** ~40 mmHg

**Q.** And the Median survival time ([6]; OXY111A alone, 2 mg/kg)?
**A.** 107 days

**Q.** And the “Infiltration of CD49b NK cells into tumor” value (B16 tumor; in vivo)?
**A.** significantly enhanced

**Q.** What about the “Presence of CD31 EC cells in tumor” value (B16 tumor; in vivo) of the same molecule?
**A.** significantly enhanced

**Q.** And the “Infiltration of CD68 (M2 type) macrophages into tumor” value (B16 tumor; intraperitoneal injections on days 7, 8, 14, 15, 21, 22, 29 and 30)?
**A.** significantly enhanced

**Q.** And the Median survival time ([7]; OXY111A alone, 2 mg/kg)?
**A.** 155 days

**Q.** With `N.N.[Cl][Pt][Cl]` [cisplatin, cis-dichlorodiamine platinum] as the molecule, how does the “Growth of endothelial cells” value (endothelial cells) read?
**A.** inhibited the growth of the endothelial cells

**Q.** With `CC(=O)O[C@H]1C(=O)[C@@]2(C)[C@H]([C@H](OC(=O)c3ccccc3)[C@]3(O)C[C@H](OC(=O)[C@H](O)[C@@H](NC(=O)c4ccccc4)c4ccccc4)C(C)=C1C3(C)C)[C@]1(OC(C)=O)CO[C@@H]1C[C@@H]2O` [Paclitaxel, paclitaxel] as the molecule, how does the “Growth of endothelial cells” value (endothelial cells) read?
**A.** inhibited the growth of the endothelial cells

**Q.** How did the Median survival time ([2]; Gemcitabine alone, 100 mg/kg) turn out when `Nc1ccn([C@@H]2O[C@H](CO)[C@@H](O)C2(F)F)c(=O)n1` [Gemcitabine, gemcitabine, reference compound] was run?
**A.** 140 days

**Q.** And the Median survival time ([3]; Gemcitabine alone, 100 mg/kg)?
**A.** 58 days

**Q.** What about the Median survival time ([6]; Gemcitabine alone, 100 mg/kg) of the same molecule?
**A.** 89 days

**Q.** And the Median survival time ([7]; Gemcitabine alone, 100 mg/kg)?
**A.** 141 days
